Source: US5834453A, “Methods for the manufacture and use of antimicrobial sterol conjugates” (Lehigh University, priority 1997, dated 1998)
≈ marks a conversion by molar mass, not a printed value. Entries after “also recorded” stand apart in the source; their conditions may differ.

How the values were obtained:
A. fumigatus (H1120) = experiment: MIC, micro-broth dilution; type: cell-based; conditions: Aspergillus fumigatus, 35° C., 24 hours, read-out: ANTIMICROBIAL ACTIVITY (MIC)
Outline: (§1)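 Micro-broth dilution with 10^6/ml inocula in 0.5× trypticase soy broth, 24 h at 35° C. MIC taken as concentration giving complete growth inhibition; also tested at varied pH, with CaCl₂ or MgCl₂, or with immobilized horse serum.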

C. albicans (90028) = experiment: MIC, micro-broth dilution; type: cell-based; conditions: Candida albicans, 35° C., 24 hours, read-out: ANTIMICROBIAL ACTIVITY (MIC)
Outline: as §1

C. neoformans (M68979) = experiment: MIC, micro-broth dilution; type: cell-based; conditions: Cryptococcus neoformans, 24 h, read-out: ANTIMICROBIAL ACTIVITY (MIC)
Outline: as §1

E. cloacae (13047) = experiment: MIC, micro-broth dilution; type: cell-based; conditions: Enterobacter cloacae, 35° C., 24 hours, read-out: ANTIMICROBIAL ACTIVITY (MIC)
Outline: as §1

E. coli (25922) = experiment: MIC, micro-broth dilution; type: cell-based; conditions: Escherichia coli, 35° C., 24 hours, read-out: ANTIMICROBIAL ACTIVITY (MIC)
Outline: as §1

E. faecalis (29212) = experiment: MIC, micro-broth dilution; type: cell-based; conditions: Enterococcus faecalis, 35° C., 24 hours, read-out: ANTIMICROBIAL ACTIVITY (MIC)
Outline: as §1

E. faecium (T6480-9) = experiment: MIC, micro-broth dilution; type: cell-based; conditions: Enterococcus faecium, 35° C., 24 hours, read-out: ANTIMICROBIAL ACTIVITY (MIC)
Outline: as §1

K. pneumoniae (13883) = experiment: MIC, micro-broth dilution; type: cell-based; conditions: Klebsiella pneumoniae, 24 h, read-out: ANTIMICROBIAL ACTIVITY (MIC)
Outline: as §1

P. aeruginosa (10145) = experiment: MIC, micro-broth dilution; type: cell-based; conditions: Pseudomonas aeruginosa, 35° C., 24 hours, read-out: ANTIMICROBIAL ACTIVITY (MIC)
Outline: as §1

P. aeruginosa (2853) = experiment: MIC, micro-broth dilution; type: cell-based; conditions: Pseudomonas aeruginosa, 24 h, read-out: ANTIMICROBIAL ACTIVITY (MIC)
Outline: as §1

P. vulgaris (13315) = experiment: MIC, micro-broth dilution; type: cell-based; conditions: Proteus vulgaris, 35° C., 24 hours, read-out: ANTIMICROBIAL ACTIVITY (MIC)
Outline: as §1

S. agalactiae (13813) = experiment: MIC, micro-broth dilution; type: cell-based; conditions: Streptococcus agalactiae, 35° C., 24 hours, read-out: ANTIMICROBIAL ACTIVITY (MIC)
Outline: as §1

S. aureus (25923) = experiment: MIC, micro-broth dilution; type: cell-based; conditions: Staphylococcus aureus, 35° C., 24 hours, read-out: ANTIMICROBIAL ACTIVITY (MIC)
Outline: as §1

S. aureus (29213) = experiment: MIC, micro-broth dilution; type: cell-based; conditions: Staphylococcus aureus, 24 h, read-out: ANTIMICROBIAL ACTIVITY (MIC)
Outline: as §1

S. epidermidis (12228) = experiment: MIC, micro-broth dilution; type: cell-based; conditions: Staphylococcus epidermidis, 35° C., 24 hours, read-out: ANTIMICROBIAL ACTIVITY (MIC)
Outline: as §1

S. marcescens (13880) = experiment: MIC, micro-broth dilution; type: cell-based; conditions: for MIC: Serratia marcescens, 24 h, read-out: ANTIMICROBIAL ACTIVITY (MIC)
Outline: as §1

S. pneumoniae (6305) = experiment: MIC, micro-broth dilution; type: cell-based; conditions: Streptococcus pneumoniae, 35° C., 24 hours, read-out: ANTIMICROBIAL ACTIVITY (MIC)
Outline: as §1

S. pyrogenes (19615) = experiment: MIC, micro-broth dilution; type: cell-based; conditions: 24 h, read-out: ANTIMICROBIAL ACTIVITY (MIC)
Outline: as §1

[1] = Hemolytic activity, minimal hemolytic concentration (MHC); type: cell-based, sheep; conditions: sheep red blood cells, 24 hours at 37° C. in saline
Experimental: (§2) Hemolytic activity of the squalamine mimics according to the present invention were also studied by incubating sheep red blood cells for 24 hours at 37° C. in saline (final concentration of 0.5%) with or without respective concentrations of the squalamine mimics. The minimal hemolytic concentration (MHC) was determined as the lowest concentration of a mimic that raised visible hemolysis.

Aspergillus fumigatus = experiment: MIC against clinical isolates; type: cell-based; conditions: 24 h; clinical isolates of Aspergillus fumigatus
Experimental: (§3) The antimicrobial activity of the compounds according to the present invention were compared with the results obtained for squalamine as reported in Proc. Nat. Acad. Sci. USA 90:1354 (1993), supra, the disclosure of which is incorporated in toto herein. The data reported in the following table is the minimum inhibitory concentration (MIC) required for complete inhibition of microbial growth. The MIC was determined utilizing known micro-broth dilution methods in which inocula of 10^6 /ml of the test organism were incubated in 0.5× trypticase soy broth at 35° C. for 24 hours. MIC's were also tested under various pH conditions, with calcium chloride or magnesium chloride, or with immobilized horse serum.
(§4) The numbers in parentheses contained in the table correspond to accession numbers with the American Type Culture Collection (reference strains were either obtained from the American Type Culture Collection or from the Microbiology Laboratory at Memorial Sloan-Kettering Cancer Center; Bacterial strains were maintained on Columbia 5% sheep blood agar plates, and fungi were maintained on Sabouraud Dextrose agar plates).

Cryptococcus neoformans = experiment: MIC against clinical isolates; type: cell-based; conditions: 24 h; clinical isolates of Cryptococcus neoformans
Experimental: as §3, §4

A. fumigatus (H29709) = experiment: MIC, micro-broth dilution; type: cell-based; conditions: Aspergillus fumigatus, 35° C., 24 hours, read-out: ANTIMICROBIAL ACTIVITY (MIC)
Outline: as §1

C. neoformans (90012) = experiment: MIC, micro-broth dilution; type: cell-based; conditions: Cryptococcus neoformans, 24 h, read-out: ANTIMICROBIAL ACTIVITY (MIC)
Outline: as §1

S. aureus (H20809) = experiment: MIC, micro-broth dilution; type: cell-based; conditions: Staphylococcus aureus, 24 h, read-out: ANTIMICROBIAL ACTIVITY (MIC)
Outline: as §1

sheep red blood cells = experiment: Hemolytic activity, minimal hemolytic concentration (MHC); type: cell-based
Experimental: as §2

Escherichia coli = experiment: Bactericidal action; type: cell-based
Pseudomonas aeruginosa = experiment: Bactericidal action; type: cell-based
Staphylococcus aureus = experiment: Bactericidal action; type: cell-based
gram negative rods [2] = experiment: Enhancement of the antimicrobial activity of rifampin; type: cell-based; conditions: subinhibitory concentrations of SM-7
[3] = tested on: various groups of microorganisms; experiment: Antimicrobial activity (MIC), all microorganisms tested; type: cell-based
Experimental: as §3, §4

bacteria = experiment: Loss of antimicrobial/bactericidal action in presence of albumin; type: cell-based; conditions: 12.5 μg/ml of SM-7, 40 mg/ml of bovine serum albumin
gram negative rods [4] = experiment: Antimicrobial activity (MIC), gram negative rods; type: cell-based; conditions: of all the mimics tested
Experimental: as §3

Row | SMILES | MIC (A. fumigatus (H1120)) [µg/mL] | MIC (C. albicans (90028)) [µg/mL] | MIC (C. neoformans (M68979)) [µg/mL] | MIC (E. cloacae (13047)) [µg/mL] | MIC (E. coli (25922)) [µg/mL] | MIC (E. faecalis (29212)) [µg/mL] | MIC (E. faecium (T6480-9)) [µg/mL] | MIC (K. pneumoniae (13883)) [µg/mL] | MIC (P. aeruginosa (10145)) [µg/mL] | MIC (P. aeruginosa (2853)) [µg/mL] | MIC (P. vulgaris (13315)) [µg/mL] | MIC (S. agalactiae (13813)) [µg/mL] | MIC (S. aureus (25923)) [µg/mL] | MIC (S. aureus (29213)) [µg/mL] | MIC (S. epidermidis (12228)) [µg/mL] | MIC (S. marcescens (13880)) [µg/mL] | MIC (S. pneumoniae (6305)) [µg/mL] | MIC (S. pyrogenes (19615)) [µg/mL] | minimal hemolytic concentration (MHC) at 24 h [1] [µg/mL] | further results
1 | C[C@H](C(=O)NCCCNCCCCNCCCN)[C@H]1CC[C@H]2[C@@H]3CC=C4C[C@@H](OS(=O)(=O)O)CC[C@]4(C)[C@H]3CC[C@]12C [SM-2, 23,24-bisnor-3β-ol-5-cholenic acid 3-sulfate spermine conjugate] | 12.5 (≈ 20.5 µM) | 12.5 (≈ 20.5 µM) | 3.13 (≈ 5.12 µM) | > 100 | 6.25 (≈ 10.2 µM) | > 100 | > 100 | 12.5 (≈ 20.5 µM) | 12.5 (≈ 20.5 µM) | 3.13 (≈ 5.12 µM) | > 100 | > 100 | 12.5 (≈ 20.5 µM) | > 100 | 3.13 (≈ 5.12 µM) | > 100 | > 100 | 6.25 (≈ 10.2 µM) | > 100 | MIC (Aspergillus fumigatus): 12.5 µg/mL (≈ 20.5 µM); MIC (Cryptococcus neoformans): 3.13 µg/mL (≈ 5.12 µM)
2 | C[C@H](CCC(=O)NCCCNCCCCNCCCN)[C@H]1CC[C@H]2[C@@H]3CC[C@@H]4C[C@H](O)CC[C@]4(C)[C@H]3C[C@H](O)[C@]12C [SM-7, deoxycholic acid-spermine conjugate] | 12.5 (≈ 21.7 µM) | 3.13 (≈ 5.43 µM) | 1.56 (≈ 2.7 µM) | 12.5 (≈ 21.7 µM) | 3.13 (≈ 5.43 µM) | 3.13 (≈ 5.43 µM) | 6.25 (≈ 10.8 µM) | 3.13 (≈ 5.43 µM) | 6.25 (≈ 10.8 µM) | 3.13 (≈ 5.43 µM) | 3.13 (≈ 5.43 µM) | 3.13 (≈ 5.43 µM) | 1.56 (≈ 2.7 µM) | 1.56 (≈ 2.7 µM) | 0.78 (≈ 1.35 µM) | 25 (≈ 43.3 µM) | 3.13 (≈ 5.43 µM) | 0.78 (≈ 1.35 µM) | 12.5 | MIC (A. fumigatus (H29709)): 12.5 µg/mL (≈ 21.7 µM); MIC (C. neoformans (90012)): 0.78 µg/mL (≈ 1.35 µM); MIC (S. aureus (H20809)): 1.56 µg/mL (≈ 2.7 µM); activity against S. marcescens (S. marcescens (13880); in words): found even against S. marcescens; also recorded: effective against S. marcescens; hemolytic activity (in words) (sheep red blood cells): unwanted hemolytic activity; antibacterial action (bactericidal) (Escherichia coli): bactericidal; antibacterial action (bactericidal) (Pseudomonas aeruginosa): bactericidal; antibacterial action (bactericidal) (Staphylococcus aureus): bactericidal; enhancement of antimicrobial activity of rifampin (gram negative rods [2]): markedly enhanced the antimicrobial activity of rifampin against gram negative rods; antimicrobial activity (in words) [3]: highly active; also recorded: more activity than SM-8, SM-14, and SM-22; inhibition of (bactericidal) activity by albumin (bacteria): completely inhibited; potency ranking against gram negative rods (gram negative rods [4]): most potent activity against gram negative rods of all the mimics tested
